The nature of series [1]: Tmax in Sprague-Dawley rat at 10 mg/kg, po. In kind it is ADME, organism-based. The conditions noted are these: in vivo.
The target in series [2] is Proto-oncogene tyrosine-protein kinase receptor Ret (Homo sapiens, UniProt P07949, M918T). As to the kind of experiment: Inhibition of recombinant human N-terminal GST-HIS6 fused RET M918T mutant C-terminal domain (H658 to S1114 residues) expressed in Sf9 insect cells using TRK-C-derived peptide as substrate in presence of [33P]-ATP by filter binding assay.
In series [3] the target is Kinesin-1 heavy chain/ Tyrosine-protein kinase receptor RET (Homo sapiens) (UniProt P07949+P33176). Kind of series: Inhibition of KIF5B-RET fusion protein (unknown origin) expressed in mouse BaF3 cells assessed as reduction in cell proliferation measured after 48 hrs by MTS assay. In kind it is cell-based.
In series [4] the target is Coiled-coil domain-containing protein 6/Tyrosine-protein kinase receptor RET (Homo sapiens) (UniProt P07949+Q16204). Kind of series: Inhibition of CCDC6-RET fusion protein (unknown origin) expressed in mouse BaF3 cells assessed as reduction in SHC phosphorylation at 10 to 500 nM measured after 4 hrs by Western blot analysis. In kind it is cell-based. The conditions noted are these: dose 10-500 nM.

Activity calls are given as the source filed them. No cut-off for these calls is given here.

Chain of Kinesin-1 heavy chain/ Tyrosine-protein kinase receptor RET (Homo sapiens) (P07949 29-1114 limits assumed): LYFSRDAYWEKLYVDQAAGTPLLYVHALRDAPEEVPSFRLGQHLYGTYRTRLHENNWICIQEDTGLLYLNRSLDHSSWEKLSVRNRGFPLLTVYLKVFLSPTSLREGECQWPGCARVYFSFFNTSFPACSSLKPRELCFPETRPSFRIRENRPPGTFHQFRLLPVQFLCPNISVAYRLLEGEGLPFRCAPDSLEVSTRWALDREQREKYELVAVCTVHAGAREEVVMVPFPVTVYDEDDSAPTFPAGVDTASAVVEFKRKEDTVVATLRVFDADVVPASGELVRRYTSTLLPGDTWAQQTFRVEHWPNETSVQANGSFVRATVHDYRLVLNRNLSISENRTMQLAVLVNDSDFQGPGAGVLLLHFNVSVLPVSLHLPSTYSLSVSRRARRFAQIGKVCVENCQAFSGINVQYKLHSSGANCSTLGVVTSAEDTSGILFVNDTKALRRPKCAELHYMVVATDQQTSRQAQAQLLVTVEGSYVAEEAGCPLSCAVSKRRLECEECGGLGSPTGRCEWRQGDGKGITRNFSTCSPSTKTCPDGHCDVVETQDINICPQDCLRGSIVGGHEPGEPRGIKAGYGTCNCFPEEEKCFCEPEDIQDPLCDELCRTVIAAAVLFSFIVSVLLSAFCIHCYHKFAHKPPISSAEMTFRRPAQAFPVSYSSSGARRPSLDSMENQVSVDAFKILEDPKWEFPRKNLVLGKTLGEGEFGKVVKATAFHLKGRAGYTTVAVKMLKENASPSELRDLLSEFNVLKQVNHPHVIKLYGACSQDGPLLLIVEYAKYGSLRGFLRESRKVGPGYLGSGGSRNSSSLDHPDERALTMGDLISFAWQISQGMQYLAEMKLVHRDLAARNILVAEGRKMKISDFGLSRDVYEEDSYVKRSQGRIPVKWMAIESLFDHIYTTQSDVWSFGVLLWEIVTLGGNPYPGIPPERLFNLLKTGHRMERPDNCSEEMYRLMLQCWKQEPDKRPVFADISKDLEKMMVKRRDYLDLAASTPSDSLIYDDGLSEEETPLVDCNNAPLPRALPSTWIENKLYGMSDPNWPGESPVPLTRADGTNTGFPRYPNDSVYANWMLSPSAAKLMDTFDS
Chain of Kinesin-1 heavy chain/ Tyrosine-protein kinase receptor RET (Homo sapiens) (P33176 2-963 partner limits assumed): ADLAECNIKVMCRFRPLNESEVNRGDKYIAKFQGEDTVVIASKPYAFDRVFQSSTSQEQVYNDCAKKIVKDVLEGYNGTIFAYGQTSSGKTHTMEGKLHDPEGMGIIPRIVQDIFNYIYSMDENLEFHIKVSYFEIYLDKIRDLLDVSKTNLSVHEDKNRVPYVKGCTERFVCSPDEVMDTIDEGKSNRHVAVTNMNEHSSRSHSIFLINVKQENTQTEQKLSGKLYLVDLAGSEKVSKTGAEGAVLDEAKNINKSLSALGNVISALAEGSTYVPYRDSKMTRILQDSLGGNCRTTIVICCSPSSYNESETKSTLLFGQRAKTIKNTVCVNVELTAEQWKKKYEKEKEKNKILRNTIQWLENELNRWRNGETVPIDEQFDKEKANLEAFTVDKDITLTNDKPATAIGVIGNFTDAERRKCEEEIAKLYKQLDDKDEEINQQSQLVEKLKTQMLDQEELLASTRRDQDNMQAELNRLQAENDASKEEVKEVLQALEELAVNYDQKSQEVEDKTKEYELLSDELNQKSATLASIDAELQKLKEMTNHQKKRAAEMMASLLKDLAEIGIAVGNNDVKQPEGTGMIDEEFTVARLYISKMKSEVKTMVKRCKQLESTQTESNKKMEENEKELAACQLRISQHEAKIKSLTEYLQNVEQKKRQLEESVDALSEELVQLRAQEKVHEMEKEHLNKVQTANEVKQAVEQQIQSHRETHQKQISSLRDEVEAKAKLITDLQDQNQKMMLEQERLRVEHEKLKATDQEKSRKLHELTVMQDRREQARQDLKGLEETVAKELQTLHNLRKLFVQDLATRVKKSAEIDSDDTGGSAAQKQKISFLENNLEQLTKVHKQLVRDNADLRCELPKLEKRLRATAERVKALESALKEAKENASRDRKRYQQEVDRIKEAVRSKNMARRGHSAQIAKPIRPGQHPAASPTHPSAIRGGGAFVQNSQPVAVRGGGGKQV
Chain of Coiled-coil domain-containing protein 6/Tyrosine-protein kinase receptor RET (Homo sapiens) (P07949 29-1114 limits assumed): as the sequence (P07949 29-1114 limits assumed) above
Chain of Coiled-coil domain-containing protein 6/Tyrosine-protein kinase receptor RET (Homo sapiens) (Q16204 2-474 partner limits assumed): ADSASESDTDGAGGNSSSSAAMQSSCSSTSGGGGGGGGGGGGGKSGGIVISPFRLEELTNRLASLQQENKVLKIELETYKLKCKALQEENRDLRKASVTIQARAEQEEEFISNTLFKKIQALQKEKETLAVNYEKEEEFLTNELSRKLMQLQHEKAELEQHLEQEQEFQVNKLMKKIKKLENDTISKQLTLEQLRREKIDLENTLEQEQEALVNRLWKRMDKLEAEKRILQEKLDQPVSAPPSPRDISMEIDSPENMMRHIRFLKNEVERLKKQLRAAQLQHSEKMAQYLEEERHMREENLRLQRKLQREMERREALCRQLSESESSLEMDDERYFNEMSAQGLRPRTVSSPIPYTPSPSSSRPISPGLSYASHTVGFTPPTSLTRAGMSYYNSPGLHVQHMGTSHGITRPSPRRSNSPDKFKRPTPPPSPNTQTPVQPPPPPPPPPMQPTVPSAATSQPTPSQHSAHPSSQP
Chain of Proto-oncogene tyrosine-protein kinase receptor Ret (P07949 29-1114 M918T limits assumed): as the sequence (P07949 29-1114 limits assumed) above, with M890T counted along it

`Cc1ccc(C(=O)Nc2ccc(CN3CCN(C)CC3)c(C(F)(F)F)c2)cc1Oc1nc(-c2cccnc2)nc2[nH]ncc12`: the Tmax in series [1] was 45 min. For the same compound, the concentration for half-maximal inhibition (IC50) in series [2] stood at 8.42 nM. For the same compound, in series [3], the 50% growth inhibitory concentration (GI50) turned out to be 17 nM. For the same compound, the inhibition entry in series [4] is “Active”.

These data come from ChEMBL document CHEMBL4706552, “Discovery of 4-methyl-N-(4-((4-methylpiperazin- 1-yl)methyl)-3-(trifluoromethyl)phenyl)-3-((6-(pyridin-3-yl)-1H-pyrazolo[3,4-d]pyrimidin-4-yl)-oxy)benzamide as a potent inhibitor of RET and its gatekeeper mutant” (Eur J Med Chem, 2020).
